Tested on: plants
Test: Test D post-emergence, other plants of Tables D2 and D4
Assay type: in vivo
Conditions: for STEME damage rating (100=total damage to plant; 0=no damage to plant) / VERPE damage rating (100=total damage to plant; 0=no damage to plant): "Cereals" Postemergent, evaluated after 15 d; for damage to plant (100=total damage to plant; 0=no damage to plant), ABUTH / damage to plant (100=total damage to plant; 0=no damage to plant), AMARE / damage to plant (100=total damage to plant; 0=no damage to plant), BIDPI / damage to plant (100=total damage to plant; 0=no damage to plant), BRAPL / damage to plant (100=total damage to plant; 0=no damage to plant), CYPES / damage to plant (100=total damage to plant; 0=no damage to plant), DIGSA / damage to plant (100=total damage to plant; 0=no damage to plant), ECHCG / damage to plant (100=total damage to plant; 0=no damage to plant), ELEIN / damage to plant (100=total damage to plant; 0=no damage to plant), EPHHL / damage to plant (100=total damage to plant; 0=no damage to plant), GLXMA / damage to plant (100=total damage to plant; 0=no damage to plant), IPOHE / damage to plant (100=total damage to plant; 0=no damage to plant), ORYSA / damage to plant (100=total damage to plant; 0=no damage to plant), PANMI / damage to plant (100=total damage to plant; 0=no damage to plant), SETFA / damage to plant (100=total damage to plant; 0=no damage to plant), SORVU: post-emergence
Experimental: A formulation containing 50 g/L of the test chemical was prepared by dissolving the active ingredient in a mixture of organic solvents and emulsifier, details of which are provided in the table. This formulation was then mixed with a small, variable amount of acetone to aid dissolution, before addition of a 0.2% v/v aqueous solution of an adjuvant, as the aqueous diluent, to form an aqueous spray solution which contains a predetermined concentration of the active ingredient.
This aqueous spray solution was then sprayed onto plants including maize and wheat that had been seed treated with a herbicide safener, after one day's cultivation (for pre-emergence) or after about 12 days' cultivation (for post-emergence). The plants were grown from seeds sown in standard soil, placed in a glasshouse under controlled conditions (at 24/18° C. or 20/16° C., day/night; 16 h light; 65% humidity). After spray application the plants were then grown in a glasshouse under the same conditions and watered twice daily. After 15 d for post-emergence and 20 DAA for pre-emergence the test was evaluated (100=total damage to plant; 0=no damage to plant).

CN1CC(c2cc(C(F)(F)F)n(C)n2)C(C(=O)Nc2ccc(F)c(F)c2F)C1=O (racemic) [Compound 17]
STEME damage rating (100=total damage to plant; 0=no damage to plant) (Rates 130): 0 | STEME damage rating (100=total damage to plant; 0=no damage to plant) (Rates 250): 0 | STEME damage rating (100=total damage to plant; 0=no damage to plant) (Rates 500): 30 | VERPE damage rating (100=total damage to plant; 0=no damage to plant) (Rates 130): 30 | VERPE damage rating (100=total damage to plant; 0=no damage to plant) (Rates 250): 70 | VERPE damage rating (100=total damage to plant; 0=no damage to plant) (Rates 500): 60 | damage to plant (100=total damage to plant; 0=no damage to plant), ABUTH (rate 130, evaluated after 15 d): 0 | damage to plant (100=total damage to plant; 0=no damage to plant), ABUTH (rate 250, evaluated after 15 d): 0 | damage to plant (100=total damage to plant; 0=no damage to plant), ABUTH (rate 500, evaluated after 15 d): 20 | damage to plant (100=total damage to plant; 0=no damage to plant), AMARE (rate 250, evaluated after 15 d): 20 | damage to plant (100=total damage to plant; 0=no damage to plant), AMARE (rate 500, evaluated after 15 d): 40 | damage to plant (100=total damage to plant; 0=no damage to plant), BIDPI (rate 130, evaluated after 15 d): 0 | damage to plant (100=total damage to plant; 0=no damage to plant), BIDPI (rate 250, evaluated after 15 d): 0 | damage to plant (100=total damage to plant; 0=no damage to plant), BIDPI (rate 500, evaluated after 15 d): 0 | damage to plant (100=total damage to plant; 0=no damage to plant), BRAPL (rate 130, evaluated after 15 d): 70 | damage to plant (100=total damage to plant; 0=no damage to plant), BRAPL (rate 250, evaluated after 15 d): 80 | damage to plant (100=total damage to plant; 0=no damage to plant), BRAPL (rate 500, evaluated after 15 d): 80 | damage to plant (100=total damage to plant; 0=no damage to plant), CYPES (rate 130, evaluated after 15 d): 0 | damage to plant (100=total damage to plant; 0=no damage to plant), CYPES (rate 250, evaluated after 15 d): 0 | damage to plant (100=total damage to plant; 0=no damage to plant), CYPES (rate 500, evaluated after 15 d): 10 | damage to plant (100=total damage to plant; 0=no damage to plant), DIGSA (rate 130, evaluated after 15 d): 70 | damage to plant (100=total damage to plant; 0=no damage to plant), DIGSA (rate 250, evaluated after 15 d): 80 | damage to plant (100=total damage to plant; 0=no damage to plant), DIGSA (rate 500, evaluated after 15 d): 80 | damage to plant (100=total damage to plant; 0=no damage to plant), ECHCG (rate 130, evaluated after 15 d): 80 | damage to plant (100=total damage to plant; 0=no damage to plant), ECHCG (rate 250, evaluated after 15 d): 80 | damage to plant (100=total damage to plant; 0=no damage to plant), ECHCG (rate 500, evaluated after 15 d): 80 | damage to plant (100=total damage to plant; 0=no damage to plant), ELEIN (rate 130, evaluated after 15 d): 0 | damage to plant (100=total damage to plant; 0=no damage to plant), ELEIN (rate 250, evaluated after 15 d): 10 | damage to plant (100=total damage to plant; 0=no damage to plant), ELEIN (rate 500, evaluated after 15 d): 20 | damage to plant (100=total damage to plant; 0=no damage to plant), EPHHL (rate 130, evaluated after 15 d): 10 | damage to plant (100=total damage to plant; 0=no damage to plant), EPHHL (rate 250, evaluated after 15 d): 20 | damage to plant (100=total damage to plant; 0=no damage to plant), EPHHL (rate 500, evaluated after 15 d): 30 | damage to plant (100=total damage to plant; 0=no damage to plant), GLXMA (rate 130, evaluated after 15 d): 0 | damage to plant (100=total damage to plant; 0=no damage to plant), GLXMA (rate 250, evaluated after 15 d): 0 | damage to plant (100=total damage to plant; 0=no damage to plant), GLXMA (rate 500, evaluated after 15 d): 10 | damage to plant (100=total damage to plant; 0=no damage to plant), IPOHE (rate 130, evaluated after 15 d): 0 | damage to plant (100=total damage to plant; 0=no damage to plant), IPOHE (rate 250, evaluated after 15 d): 0 | damage to plant (100=total damage to plant; 0=no damage to plant), IPOHE (rate 500, evaluated after 15 d): 10 | damage to plant (100=total damage to plant; 0=no damage to plant), ORYSA (rate 130, evaluated after 15 d): 0 | damage to plant (100=total damage to plant; 0=no damage to plant), ORYSA (rate 250, evaluated after 15 d): 0 | damage to plant (100=total damage to plant; 0=no damage to plant), ORYSA (rate 500, evaluated after 15 d): 10 | damage to plant (100=total damage to plant; 0=no damage to plant), PANMI (rate 130, evaluated after 15 d): 0 | damage to plant (100=total damage to plant; 0=no damage to plant), PANMI (rate 250, evaluated after 15 d): 0 | damage to plant (100=total damage to plant; 0=no damage to plant), PANMI (rate 500, evaluated after 15 d): 0 | damage to plant (100=total damage to plant; 0=no damage to plant), SETFA (rate 130, evaluated after 15 d): 60 | damage to plant (100=total damage to plant; 0=no damage to plant), SETFA (rate 250, evaluated after 15 d): 70 | damage to plant (100=total damage to plant; 0=no damage to plant), SETFA (rate 500, evaluated after 15 d): 70 | damage to plant (100=total damage to plant; 0=no damage to plant), SORVU (rate 130, evaluated after 15 d): 0 | damage to plant (100=total damage to plant; 0=no damage to plant), SORVU (rate 250, evaluated after 15 d): 0 | damage to plant (100=total damage to plant; 0=no damage to plant), SORVU (rate 500, evaluated after 15 d): 0

Source: patent US20220281848A1, “PYRAZOLE-SUBSTITUTED PYRROLIDINONES AS HERBICIDES” (FMC Corporation, priority 2019, published 2022)
